The values below come from PubChem BioAssay (NCI).

Some test systems named below: DLD-1 colon; DMS 114 small cell lung; DMS 273 small cell lung; KM20L2 colon; M19-MEL melanoma; MCF7 breast; MDA-MB-435; PC-3 prostate; SNB-78 CNS; XF 498 CNS.
Common to all, as to test: NCI tumour cell line growth inhibition, 48 h

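The compound was tested at five concentrations on cells cultured in 96-well plates, with a 48-hour exposure period. The concentration for full growth arrest is given as TGI.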

As for `CCOCC(=O)N[C@H]1CCc2cc(OC)c(OC)c(OC)c2-c2ccc(OC)c(=O)cc21`, the TGI is > 100 µM with DLD-1 colon; 0.0289 µM in the experiment on DMS 114 small cell lung; > 100 µM in the experiment on DMS 273 small cell lung; 0.0375 µM in the experiment with KM20L2 colon; > 100 µM with M19-MEL melanoma; > 100 µM in the experiment on MCF7 breast. Further, the TGI with MDA-MB-435 is < 0.0196 µM; with PC-3 prostate it was > 100 µM; with SNB-78 CNS, > 100 µM; in the experiment on XF 498 CNS, > 60 µM.
`NC1=NC(c2ccccc2)CC(c2cc(Cl)ccc2O)=N1` (centres undefined): the TGI turned out to be 25.9 µM in the experiment on DLD-1 colon; 25.6 µM in the experiment with DMS 114 small cell lung; 25.6 µM in the experiment on DMS 273 small cell lung; 31.8 µM in the experiment on KM20L2 colon; 29.5 µM with M19-MEL melanoma; 42.1 µM in the experiment with SNB-78 CNS. Moreover, the TGI in the experiment on XF 498 CNS was determined as 33.7 µM.
Take `O=[N+]([O-])c1ccc(C=NC2CCCCC2)cc1`: the TGI in the experiment on DLD-1 colon, in the experiment with DMS 114 small cell lung, with DMS 273 small cell lung, in the experiment with KM20L2 colon, in the experiment on M19-MEL melanoma and with SNB-78 CNS was > 100 µM each time. In addition, the TGI with XF 498 CNS was > 100 µM.
